Laboratory results as given in the OligoGym collection.
“And” between values parts separate entries of the source, which are not always exact repeats. Identical values can stand only once. After the bases stand the sugars from the 5' end (letter, count) and the backbone: PS all phosphorothioate, else s phosphorothioate and o phosphodiester by linkage. Methylation of C is not given here. e = 2'-O-(2-methoxyethyl) (MOE); k = constrained ethyl (cEt); d = 2'-deoxy (DNA)

Assays:
IRF5 = details: ASO
DGAT2 = details: ASO

Row | Sequence | target mRNA inhibition (IRF5; KARPAS-229, 4 µM) | target mRNA inhibition (DGAT2; HepG2, 0.12 µM) | also measured
1 | AAACCATTCTATGCCT (sugars k3 d10 k3, PS) | 0% | – | –
2 | AAAGGGTGAGTAGGAC (sugars k3 d10 k3, PS) | 24% | – | –
3 | AACCATTCTATGCCTT (sugars k3 d10 k3, PS) | 33% | – | –
4 | AAGGGCACAGCGCAGG (sugars kkddddddddddkeke, PS) | 0% | – | –
5 | AAGGGCACAGCGCAGG (sugars kkddddddddkekekk, PS) | 0% | – | –
6 | AAGGGCACAGCGCAGG (sugars kkkddddddddkdkdk, PS) | 12% | – | –
7 | ACATCCATCAATGAGG (sugars k3 d10 k3, PS) | 0% | – | –
8 | ACATCTCCACATCAGT (sugars kkddddddddddkeke, PS) | 36% | – | –
9 | ACATCTCCACATCAGT (sugars kkddddddddkekekk, PS) | 15% | – | –
10 | ACCACTGTGTACCCCA (sugars kdddddddddkekeke, PS) | 40% | – | –
11 | ACCACTGTGTACCCCA (sugars kkddddddddddkeke, PS) | 66% and 56% | – | target mRNA inhibition (IRF5; KARPAS-229, 0.44444 µM): 26%; target mRNA inhibition (IRF5; KARPAS-229, 1.33333 µM): 38%; target mRNA inhibition (IRF5; KARPAS-229, 12 µM): 70%
12 | ACCACTGTGTACCCCA (sugars kkkddddddddkekek, PS) | 6% | – | –
13 | ACTGACACAGGCGGAT (sugars kkdddddddddkdkdk, PS) | 6% | – | –
14 | ACTGACACAGGCGGAT (sugars kkddddddddkekekk, PS) | 0% | – | –
15 | AGACGAGCAAAGGGTG (sugars k3 d10 k3, PS) | 35% | – | –
16 | AGATGGTGTTATCTCC (sugars kddddddddddkekek, PS) | 0% | – | –
17 | AGATGGTGTTATCTCC (sugars kkdddddddddkekek, PS) | 0% | – | –
18 | AGATGGTGTTATCTCC (sugars kkddddddddkekekk, PS) | 0% | – | –
19 | AGATGGTGTTATCTCC (sugars kkkddddddddkekek, PS) | 0% | – | –
20 | AGCTTGGTCTTGACCT (sugars k3 d10 k3, PS) | – | – | target mRNA inhibition (IRF5; KARPAS-229, 0.44444 µM): 33%; target mRNA inhibition (IRF5; KARPAS-229, 1.33333 µM): 41%; target mRNA inhibition (IRF5; KARPAS-229, 12 µM): 55%
21 | GTCATCCAGTATAGCCTAAT (sugars e5 d10 e5, PS) | – | 44% | –
22 | GTCCTGGAGGGCGGAGAGGA (sugars e5 d10 e5, PS) | – | 32% | –
23 | GTCTCATTCATCTGGGCCCT (sugars e5 d10 e5, PS) | – | – | target mRNA inhibition (DGAT2; HepG2, 2.5 µM): 69%; target mRNA inhibition (DGAT2; HepG2, 10 µM): 86%
24 | GTGCTCTGTGGGCTCCT (sugars e3 d10 e4, PS) | – | – | target mRNA inhibition (DGAT2; HepG2, 2.5 µM): 55% and 70%; target mRNA inhibition (DGAT2; HepG2, 10 µM): 85% and 89%
25 | GTGGTGATGGGCTTGGAGTA (sugars e5 d10 e5, PS) | – | 23% | –

Row | Sequence | target mRNA inhibition (IRF5; KARPAS-229, 4 µM) | target mRNA inhibition (DGAT2; HepG2, 0.12 µM) | also measured
26 | GTGTACTTTGAGCATCCCCA (sugars e5 d10 e5, PS) | – | – | target mRNA inhibition (DGAT2; HepG2, 2.5 µM): 63% and 62%; target mRNA inhibition (DGAT2; HepG2, 10 µM): 88% and 87%
27 | GTTCCAGTCAAACACCAGCC (sugars e5 d10 e5, PS) | – | 31% | –
28 | GTTGGGCAGTCACCATTTGC (sugars e5 d10 e5, PS) | – | – | target mRNA inhibition (DGAT2; HepG2, 2.5 µM): 21%; target mRNA inhibition (DGAT2; HepG2, 10 µM): 58%
29 | GTTGTGTGTCTTCACCAGCT (sugars e3 d14 e3, PS) | – | 56% | –
30 | GTTTCGGACCCACTGTGACC (sugars e2 d13 e5, PS) | – | 70% | –
31 | GTTTCGGACCCACTGTGACC (sugars e3 d14 e3, PS) | – | 71% | –
32 | TAAAGAGGCTGGGCCATAGA (sugars e5 d10 e5, PS) | – | 21% | –
33 | TACAAAAGTCTGACATGGTG (sugars e5 d10 e5, PS) | – | 40% | –
34 | TAGAAATACAATTCCTGGAT (sugars e5 d10 e5, PS) | – | 71% | –
35 | TAGCATTGCCACTCCCATTC (sugars e3 d14 e3, PS) | – | 68% | –
36 | TAGCCAGGTAAGGCCGTATG (sugars e5 d10 e5, PS) | – | 56% and 60% | –
37 | TAGCCTGGCTTTGATAACCC (sugars e5 d10 e5, PS) | – | 42% | –
38 | TAGCTCATGGTGGCGGCATC (sugars e5 d10 e5, PS) | – | 35% | –
39 | TAGGGCACCAGCCCCCAGGT (sugars e5 d10 e5, PS) | – | 32% | –
40 | TATTCATCTTTCCAGATCCG (sugars e5 d10 e5, PS) | – | – | target mRNA inhibition (DGAT2; HepG2, 2.5 µM): 66%; target mRNA inhibition (DGAT2; HepG2, 10 µM): 91%
41 | TATTCTAAAACTCAAATCCA (sugars e5 d10 e5, PS) | – | – | target mRNA inhibition (DGAT2; HepG2, 2.5 µM): 21%; target mRNA inhibition (DGAT2; HepG2, 10 µM): 75%
42 | TCACTGATGACATATCCCCA (sugars e5 d10 e5, PS) | – | 52% | –
43 | TCAGGACCTCAGGGCTGGCC (sugars e5 d10 e5, PS) | – | – | target mRNA inhibition (DGAT2; HepG2, 2.5 µM): 64%; target mRNA inhibition (DGAT2; HepG2, 10 µM): 82%
44 | TCAGTTCACCTCCAGGACCT (sugars e5 d10 e5, PS) | – | 46% | –
45 | TCATTCTCTCCAAAGGAGTA (sugars e5 d10 e5, PS) | – | 18% | –
46 | TCATTTCATAGATGAGGAGA (sugars e5 d10 e5, PS) | – | 34% | –
47 | TCCATGTCAGAGAGGCT (sugars e3 d10 e4, PS) | – | – | target mRNA inhibition (DGAT2; HepG2, 2.5 µM): 78% and 76%; target mRNA inhibition (DGAT2; HepG2, 10 µM): 65% and 89%
48 | TCCGCAGGGTGACTGCATTC (sugars e5 d10 e5, PS) | – | 48% | –
49 | TCCGGTCAGCCTCGGCCTGA (sugars e5 d10 e5, PS) | – | 20% | –
50 | TCCTCTCCTGTTTGATGGGT (sugars e5 d10 e5, PS) | – | – | target mRNA inhibition (DGAT2; HepG2, 2.5 µM): 83% and 90%; target mRNA inhibition (DGAT2; HepG2, 10 µM): 89% and 84%
